Source: paper PMC9506485, “Synthesis and Structure–Activity Relationships for the Anti-Mycobacterial Activity of 3-Phenyl-N-(Pyridin-2-ylmethyl)Pyrazolo[1,5-a]Pyrimidin-7-Amines” (Pharmaceuticals, 2022)
Converted amounts (≈) assume the structure as drawn.

Tests used:
[1] = system: Mycobacterium tuberculosis (strain H37Rv); test: MABA minimum inhibitory concentration assay (aerobic/replicating); assay type: cell-based; details: M.tb H37Rv; for anti-mycobacterial activity in words: MABA/LORA; for MIC90: Mycobacterium tuberculosis; for MIC90 / MIC90 MABA: aerobic/replicating, 90% inhibition of growth
[2] = system: VERO green monkey kidney cells; test: VERO mammalian cell toxicity assay; assay type: cell-based; details: inhibition of growth of VERO green monkey kidney epithelial cells; for IC50: Chlorocebus sabaeus
[3] = system: Mycobacterium tuberculosis (strain H37Rv); test: LORA minimum inhibitory concentration assay (low-oxygen/non-replicating); details: M.tb H37Rv, 90% inhibition of growth
[4] = Microsomal stability, human liver microsomes; assay type: in vitro ADME; details: pH 7.4; for microsomal CLint at 1 μM: human liver microsomes, read-out: HLM Clint(mic)
Method: (§1) Assays were performed by WuXi AppTec (Shanghai) Co., Ltd. The test compounds (Table 4) (at 1 μM) were incubated at 37 °C with liver microsomes from human or CD-1 mice in the presence of a NADPH regenerating system and phosphate buffer (100 mM, pH 7.4) at 0.5 mg/mL microsomal protein (the positive controls were testosterone, propafenone, and diclofenac). Samples were removed at time intervals of 0, 5, 10, 20, 30, and 60 min and immediately mixed with cold CH3CN (containing 0.1 μg/mL of tolbutamide as an internal standard) and then centrifuged prior to analysis by LCMS/MS.

[5] = Microsomal stability, mouse liver microsomes; assay type: in vitro ADME; details: for CLint scaled at 1 μM / half-life at 1 μM: CD-1, mouse, microsomes, pH 7.4; for microsomal CLint at 1 μM: CD-1, pH 7.4, mouse liver microsomes, read-out: MLM Clint(mic)
Method: as §1

[6] = human/mouse liver microsomes not distinguished, read-out: T½ values (microsomal stability)

In the case of `Cc1ccc(-c2cnn3c(NCc4ccccn4)cc(-c4ccccc4)nc23)cc1` [Compound 19, 5-Phenyl-N-(pyridin-2-ylmethyl)-3-(p-tolyl)pyrazolo[1,5-a]pyrimidin-7-amine], the melting point was 172 to 174 °C, the “anti-mycobacterial activity in words” value [1] was “inactive” and the MIC90 [1] was > 32 µg/mL. For the same compound, the IC50 [2] was > 32 µg/mL and the “MIC90 LORA” value [3] was >32 µg/mL.
For `FC(F)(F)c1ccccc1-c1cnn2c(NCc3ccccn3)cc(-c3ccccc3)nc12` [Compound 13, 5-Phenyl-N-(pyridin-2-ylmethyl)-3-(2-(trifluoromethyl)phenyl)pyrazolo[1,5-a]pyrimidin-7-amine], the melting point was 166 to 168 °C, the MIC90 [1] was > 32 µg/mL and the IC50 [2] was > 32 µg/mL. The “MIC90 LORA” value [3] was >32 µg/mL.
For `CN(C)c1cccc(CNc2cc(-c3ccccc3)nc3c(-c4ccc(F)cc4)cnn23)n1` [Compound 49, N-((6-(Dimethylamino)pyridin-2-yl)methyl)-3-(4-fluorophenyl)-5-phenylpyrazolo[1,5-a]pyrimidin-7-amine], the melting point was 151 to 153 °C, the MIC90 [1] was 1.39 µg/mL (≈ 3.17 µM) and the IC50 [2] was > 32 µg/mL. For the same compound, the “MIC90 LORA” value [3] was 0.40 µg/mL (≈ 0.912 µM).
For `CN(C)CCOc1ccc(CNc2cc(-c3ccccc3)nc3c(-c4ccc(F)cc4)cnn23)nc1` [Compound 57, N-((5-(2-(Dimethylamino)ethoxy)pyridin-2-yl)methyl)-3-(4-fluorophenyl)-5-phenylpyrazolo[1,5-a]pyrimidin-7-amine], the MIC90 [1] was 3.6 µg/mL (≈ 7.46 µM), the IC50 [2] was 24 µg/mL (≈ 49.7 µM) and the “MIC90 LORA” value [3] was 1.9 µg/mL (≈ 3.94 µM).
For `Fc1ccc(-c2cnn3c(NCc4ccc(N5CCCCC5)cn4)cc(-c4ccccc4)nc23)cc1` [Compound 59, 3-(4-Fluorophenyl)-5-phenyl-N-((5-(piperidin-1-yl)pyridin-2-yl)methyl)pyrazolo[1,5-a]pyrimidin-7-amine], the melting point was 179 to 182 °C, the MIC90 [1] was 0.96 µg/mL (≈ 2.01 µM) and the IC50 [2] was > 32 µg/mL. The “MIC90 LORA” value [3] was 0.85 µg/mL (≈ 1.78 µM).
With “3-(4-Fluorophenyl)-N-((6-(4-methylpiperidin-1-yl)pyridin-2-yl)methyl)-5-phenylpyrazolo[1,5-a]pyrimidin-7-amine [Compound 51]” the “MIC90 MABA” value [1] was 0.94 µg/mL, the “IC50 VERO” value [2] was 11.8 µg/mL and the “MIC90 LORA” value [3] was 0.85 µg/mL.
For `FC(F)(F)c1ccc(-c2cnn3c(NCc4ccccn4)cc(-c4ccccc4)nc23)cc1` [Compound 21, 5-Phenyl-N-(pyridin-2-ylmethyl)-3-(4-(trifluoromethyl)phenyl)pyrazolo[1,5-a]pyrimidin-7-amine], the melting point was 188 to 190 °C, the “anti-mycobacterial activity in words” value [1] was “inactive” and the MIC90 [1] was > 32 µg/mL. The IC50 [2] was > 32 µg/mL and the “MIC90 LORA” value [3] was >32 µg/mL.
In the case of “N-((4-(2-(Dimethylamino)ethoxy)pyridin-2-yl)methyl)-3-(4-fluorophenyl)-5-phenylpyrazolo[1,5-a]pyrimidin-7-amine [Compound 58]”, the “MIC90 MABA” value [1] was 4.7 µg/mL, the “IC50 VERO” value [2] was >32 µg/mL and the “MIC90 LORA” value [3] was 4.1 µg/mL.
In the case of `COc1ccccc1-c1cnn2c(NCc3ccccn3)cc(-c3ccccc3)nc12` [Compound 12, 3-(2-Methoxyphenyl)-5-phenyl-N-(pyridin-2-ylmethyl)pyrazolo[1,5-a]pyrimidin-7-amine], the melting point was 169 to 171 °C, the MIC90 [1] was > 32 µg/mL and the IC50 [2] was > 32 µg/mL. For the same compound, the “MIC90 LORA” value [3] was >32 µg/mL.
With `Fc1ccc(-c2cnn3c(NCc4ccccn4)cc(C4=CCCC4)nc23)cc1` [Compound 26, 5-(Cyclopent-1-en-1-yl)-3-(4-fluorophenyl)-N-(pyridin-2-ylmethyl)pyrazolo[1,5-a]pyrimidin-7-amine] the CLint scaled at 1 μM ([4]; human, microsomes) was 32 mL/min/kg, the half-life at 1 μM ([4]; human, microsomes) was 39 min and the microsomal CLint at 1 μM [4] was 35 µL/min/mg. For the same compound, the half-life at 1 μM [4, 6] was < 85 min, the MIC90 [1] was 0.89 µg/mL (≈ 2.31 µM) and the IC50 [2] was > 32 µg/mL. It also gave a CLint scaled at 1 μM [5] of 140 mL/min/kg, a half-life at 1 μM [5] of 39 min and a microsomal CLint at 1 μM [5] of 35 µL/min/mg. For the same compound, the “MIC90 LORA” value [3] was 0.23 µg/mL (≈ 0.597 µM).
In the case of `N#Cc1ccnc(CNc2cc(-c3ccccc3)nc3c(-c4ccc(F)cc4)cnn23)c1` [Compound 61, 2-(((3-(4-Fluorophenyl)-5-phenylpyrazolo[1,5-a]pyrimidin-7-yl)amino)methyl)isonicotinonitrile], the melting point was 233 to 236 °C, the “anti-mycobacterial activity in words” value [1] was “inactive” and the MIC90 [1] was > 32 µg/mL. The IC50 [2] was > 32 µg/mL and the “MIC90 LORA” value [3] was >32 µg/mL.
For `Fc1ccc(-c2cnn3c(NCc4ccccn4)cc(-c4ccncc4)nc23)cc1` [Compound 40, 3-(4-Fluorophenyl)-N-(pyridin-2-ylmethyl)-5-(pyridin-4-yl)pyrazolo[1,5-a]pyrimidin-7-amine], the MIC90 [1] was > 32 µg/mL, the IC50 [2] was > 32 µg/mL and the “MIC90 LORA” value [3] was 28 µg/mL (≈ 70.6 µM).
In the case of `CN1CCN(c2ccnc(CNc3cc(-c4ccccc4)nc4c(-c5ccc(F)cc5)cnn34)c2)CC1` [Compound 65, 3-(4-Fluorophenyl)-N-((4-(4-methylpiperazin-1-yl)pyridin-2-yl)methyl)-5-phenylpyrazolo[1,5-a]pyrimidin-7-amine], the melting point was 203 to 205 °C, the MIC90 [1] was 0.09 µg/mL (≈ 0.182 µM) and the IC50 [2] was 10.7 µg/mL (≈ 21.7 µM). For the same compound, the “MIC90 LORA” value [3] was 0.73 µg/mL (≈ 1.48 µM).
In the case of `Cc1ccc(-c2cc(NCc3ccccn3)n3ncc(-c4ccc(F)cc4)c3n2)cc1` [Compound 33, 3-(4-Fluorophenyl)-N-(pyridin-2-ylmethyl)-5-(p-tolyl)pyrazolo[1,5-a]pyrimidin-7-amine], the MIC90 [1] was 3.7 µg/mL (≈ 9.04 µM), the IC50 [2] was > 32 µg/mL and the “MIC90 LORA” value [3] was 5.0 µg/mL (≈ 12.2 µM).
With `CN(C)CCCc1ccc(CNc2cc(-c3ccccc3)nc3c(-c4ccc(F)cc4)cnn23)nc1` [Compound 56, N-((5-(3-(dimethylamino)propyl)pyridin-2-yl)methyl)-3-(4-fluorophenyl)-5-phenylpyrazolo[1,5-a]pyrimidin-7-amine] the MIC90 [1] was 5.8 µg/mL (≈ 12.1 µM), the IC50 [2] was 20.3 µg/mL (≈ 42.2 µM) and the “MIC90 LORA” value [3] was 6.1 µg/mL (≈ 12.7 µM).
In the case of `Fc1ccc(-c2cnn3c(NCc4ccccn4)cc(-c4ccc(C(F)(F)F)cc4)nc23)cc1` [Compound 37, 3-(4-Fluorophenyl)-N-(pyridin-2-ylmethyl)-5-(4-(trifluoromethyl)phenyl)pyrazolo[1,5-a]pyrimidin-7-amine], the MIC90 [1] was 3.8 µg/mL (≈ 8.2 µM), the IC50 [2] was > 32 µg/mL and the “MIC90 LORA” value [3] was 3.6 µg/mL (≈ 7.77 µM).
In the case of `COc1ccccc1-c1cc(NCc2ccccn2)n2ncc(-c3ccc(F)cc3)c2n1` [Compound 29, 3-(4-Fluorophenyl)-5-(2-methoxyphenyl)-N-(pyridin-2-ylmethyl)pyrazolo[1,5-a]pyrimidin-7-amine], the MIC90 [1] was 13.3 µg/mL (≈ 31.3 µM), the IC50 [2] was > 32 µg/mL and the “MIC90 LORA” value [3] was 9.0 µg/mL (≈ 21.2 µM).
With `Fc1ccc(-c2cc(NCc3ccccn3)n3ncc(-c4ccc(F)cc4)c3n2)cc1` [Compound 32, 3,5-Bis(4-fluorophenyl)-N-(pyridin-2-ylmethyl)pyrazolo[1,5-a]pyrimidin-7-amine] the MIC90 [1] was 3 µg/mL (≈ 7.26 µM), the IC50 [2] was > 32 µg/mL and the “MIC90 LORA” value [3] was 0.22 µg/mL (≈ 0.532 µM).
In the case of `COc1cccc(-c2cc(NCc3ccccn3)n3ncc(-c4ccc(F)cc4)c3n2)c1` [Compound 31, 3-(4-Fluorophenyl)-5-(3-methoxyphenyl)-N-(pyridin-2-ylmethyl)pyrazolo[1,5-a]pyrimidin-7-amine], the MIC90 [1] was 3.9 µg/mL (≈ 9.17 µM), the IC50 [2] was > 32 µg/mL and the “MIC90 LORA” value [3] was 1.7 µg/mL (≈ 4 µM).
For `Fc1ccc(-c2cnn3c(NCc4ccccn4)cc(-c4ccco4)nc23)cc1` [Compound 43, 3-(4-Fluorophenyl)-5-(furan-2-yl)-N-(pyridin-2-ylmethyl)pyrazolo[1,5-a]pyrimidin-7-amine], the MIC90 [1] was 0.96 µg/mL (≈ 2.49 µM), the IC50 [2] was > 32 µg/mL and the “MIC90 LORA” value [3] was <0.13 µg/mL.
`Fc1ccc(-c2cnn3c(NCc4ccccn4)cc(C4=CCCCC4)nc23)cc1` [Compound 27, 5-(Cyclohex-1-en-1-yl)-3-(4-fluorophenyl)-N-(pyridin-2-ylmethyl)pyrazolo[1,5-a]pyrimidin-7-amine] gave a CLint scaled at 1 μM ([4]; human, microsomes) of 17 mL/min/kg, a half-life at 1 μM ([4]; human, microsomes) of 75 min and a microsomal CLint at 1 μM [4] of 19 µL/min/mg. For the same compound, the half-life at 1 μM [4, 6] was < 85 min, the MIC90 [1] was 0.62 µg/mL (≈ 1.55 µM) and the IC50 [2] was > 32 µg/mL. For the same compound, the CLint scaled at 1 μM [5] was 120 mL/min/kg, the half-life at 1 μM [5] was 49 min and the microsomal CLint at 1 μM [5] was 30 µL/min/mg. For the same compound, the “MIC90 LORA” value [3] was 0.44 µg/mL (≈ 1.1 µM).
With `Fc1ccc(-c2cnn3c(NCc4ccccn4)ccnc23)cc1` [Compound 22, 3-(4-Fluorophenyl)-N-(pyridin-2-ylmethyl)pyrazolo[1,5-a]pyrimidin-7-amine] the MIC90 [1] was 0.89 µg/mL (≈ 2.79 µM), the IC50 [2] was > 32 µg/mL and the “MIC90 LORA” value [3] was 0.39 µg/mL (≈ 1.22 µM).
With `C=Cc1cc(NCc2ccccn2)n2ncc(-c3ccc(F)cc3)c2n1` [Compound 24, 3-(4-Fluorophenyl)-N-(pyridin-2-ylmethyl)-5-vinylpyrazolo[1,5-a]pyrimidin-7-amine] the MIC90 [1] was 1.48 µg/mL (≈ 4.29 µM), the IC50 [2] was 17.2 µg/mL (≈ 49.8 µM) and the “MIC90 LORA” value [3] was 0.47 µg/mL (≈ 1.36 µM).
For `CN(C)CC#Cc1ccc(CNc2cc(-c3ccccc3)nc3c(-c4ccc(F)cc4)cnn23)nc1` [Compound 55, N-((5-(3-(Dimethylamino)prop-1-yn-1-yl)pyridin-2-yl)methyl)-3-(4-fluorophenyl)-5-phenylpyrazolo[1,5-a]pyrimidin-7-amine], the CLint scaled at 1 μM ([4]; human, microsomes) was < 8.6 mL/min/kg, the half-life at 1 μM ([4]; human, microsomes) was > 145 min and the microsomal CLint at 1 μM [4] was < 9.6 µL/min/mg. For the same compound, the MIC90 [1] was 1.9 µg/mL (≈ 3.99 µM), the IC50 [2] was > 32 µg/mL and the CLint scaled at 1 μM [5] was 121 mL/min/kg. The half-life at 1 μM [5] was 45.4 min, the microsomal CLint at 1 μM [5] was 31 µL/min/mg and the “MIC90 LORA” value [3] was 5.5 µg/mL (≈ 11.5 µM).
